Experimental data taken from patent publication US20090018111A1, “Novel Antimicrobial Medicament” (priority 2004, published 2009).
Like-named read-outs stand apart in the source and are kept apart here.

Assays:
C. freundii GN346 = experiment: Sensitivity test (agar dilution); assay type: cell-based, Citrobacter freundii; conditions: Citrobacter freundii
Experimental: (§1) The antibacterial activities were tested against various 18 bacteria (27 standard strains) which are representative bacteria caused clinically infectious disease (Staphylococcus aureus 3 strains, Staphylococcus epidermidis 1 strain, Micrococcus luteus 1 strain, Streptococcus pyogenes 1 strain, Enterococcus faecalis 1 strain, Enterococcus faecium 1 strain, Bacillus subtilis 1 strain, Escherichia coli 3 strains, Klebsiella pneumoniae 1 strain, Proteus mirabilis 1 strain, Proteus vulgaris 2 strains, Pseudomonas aeruginosa 3 strains, Serratia marcescens 2 strains, Enterobacter aerogenes 1 strain, Stenotrophomonas maltophilia 1 strain, Enterobacter cloacae 1 strain, Citrobacter freundii 1 strain, Moraxella catarrhalis 2 strains).
(§2) According to the standard method of Japan Chemotherapeutic Society (Chemotherapy, vol. […], p 76-79 (1981)) the test was carried out using the agar dilution method. After dissolving test samples in distilled water, agar medium containing the test samples was prepared in such a manner that the final concentration became twice serial dilution by pouring serially diluted combination drug solution or a single drug solution into agar medium. As agar medium was used Mueller Hinton Agar medium (MHA). Then, each strain was cultivated over night at 37° C. in an incubator and suspended in buffered saline solution with gelatin (BSG) in the concentration of about 10^6 CFU/ml. The suspension (about 5 μl) containing test strains was inoculated to the medium containing the test samples by Micro Planter.
(§3) When the sample is subjected to sensitivity test, this mixed solution was diluted by twice serial dilution method.
(§4) Furthermore, when the drug is solely used, each test sample was used as it is, and diluted by twice serial dilution method from the maximum concentration to the minimum concentration.
(§5) FIC index based on MIC value was calculated. […] Namely, when FIC index calculated by the following formula is equal or less than 1, the enhanced effect of the combination drug in said ratio is considered as positive. When FIC index is over 1, the enhanced effect of the combination drug in said ratio is considered as negative.
(§6) Formula of FIC index: FIC index=(MIC of Drug A in combination/MIC of Drug A alone)+(MIC of Drug B in combination/MIC of Drug B alone) N.C. in tables means being not calculated.

[1] = system: 18 bacteria (27 standard strains); experiment: Sensitivity test, combination effect over the standard strains; assay type: cell-based; conditions: in combination with compound 1, standard strains
Experimental: as §1, §2, §3, §5, §6

B. cepacia 14427 = experiment: Sensitivity test (agar dilution), clinical isolate; assay type: cell-based, Burkholderia cepacia
Experimental: (§7) In addition, the antibacterial activities were tested against strains which are comparatively less sensitive to β-lactam compounds, namely clinically isolated 13 strains of Acinetobacter calcoaceticus and Acinetobacter lwoffi, clinically isolated 11 strains of Serratia marcescens, clinically isolated 12 strains of Burkholderia cepacia, and clinically isolated 15 strains of Pseudomonas aeruginosa.
as §2
(§8) Each drug was weighed, and dissolved in distilled water to give a test sample. When the drugs are used in combination, two kinds of solution containing each drug were mixed so as to be various ratio of concentration to give a mixed solution. When the sample is subjected to sensitivity test, this mixed solution was diluted by twice serial dilution method.
as §4

B. cepacia 14428 = experiment: Sensitivity test (agar dilution), clinical isolate; assay type: cell-based, Burkholderia cepacia
Experimental: as §7, §2, §8, §4

B. cepacia 14429 = experiment: Sensitivity test (agar dilution), clinical isolate; assay type: cell-based, Burkholderia cepacia
Experimental: as §7, §2, §8, §4

B. cepacia 14430 = experiment: Sensitivity test (agar dilution), clinical isolate; assay type: cell-based, Burkholderia cepacia
Experimental: as §7, §2, §8, §4

B. cepacia 14607 = experiment: Sensitivity test (agar dilution), clinical isolate; assay type: cell-based, Burkholderia cepacia
Experimental: as §7, §2, §8, §4

B. cepacia 1892324 = experiment: Sensitivity test (agar dilution), clinical isolate; assay type: cell-based, Burkholderia cepacia
Experimental: as §7, §2, §8, §4

B. cepacia 1993527 = experiment: Sensitivity test (agar dilution), clinical isolate; assay type: cell-based, Burkholderia cepacia
Experimental: as §7, §2, §8, §4

B. cepacia 257-1 = experiment: Sensitivity test (agar dilution), clinical isolate; assay type: cell-based, Burkholderia cepacia
Experimental: as §7, §2, §8, §4

B. cepacia 3138 = experiment: Sensitivity test (agar dilution), clinical isolate; assay type: cell-based, Burkholderia cepacia
Experimental: as §7, §2, §8, §4

B. cepacia 7247 = experiment: Sensitivity test (agar dilution), clinical isolate; assay type: cell-based, Burkholderia cepacia
Experimental: as §7, §2, §8, §4

B. cepacia 7438 = experiment: Sensitivity test (agar dilution), clinical isolate; assay type: cell-based, Burkholderia cepacia
Experimental: as §7, §2, §8, §4

[2] = GN346, Concomitant (BIPM:SM = 1:1), C. freundii GN346, read-out: MIC concomitant
[3] = GN346, drug alone, C. freundii GN346, read-out: MIC alone

For `C[C@@H](O)[C@H]1C(=O)N2C(C(=O)[O-])=C(SC3Cn4cnc[n+]4C3)[C@H](C)[C@H]12` (stereo partly drawn) [BIPM, biapenem], the MIC (C. freundii GN346; [2]) was 0.125 µg/mL, the MIC (C. freundii GN346; [3]) was 0.25 µg/mL and the combination effect [1] was “the combination effect was recognized”.

With `C[C@H]1C=C(c2csc(SC3=C(C(=O)O)N4C(=O)[C@H]([C@@H](C)O)[C@H]4[C@H]3C)n2)CN1` [SM, (4R,5S,6S)-6-[(1R)-1-Hydroxyethyl]-4-methyl-3-({4-[(5S)-5-methyl-2,5-dihydro-1H-pyrrol-3-yl]-1,3-thiazol-2-yl}sulfanyl)-7-oxo-1-azabicyclo[3.2.0]hept-2-ene-2-carboxylic acid] the MIC (C. freundii GN346; GN346, Concomitant (AZT:SM = 1:1), C. freundii GN346, read-out: MIC concomitant) was 8 µg/mL, the MIC (C. freundii GN346; [2]) was 0.125 µg/mL and the MIC (C. freundii GN346; GN346, Concomitant (CAZ:SM = 1:1), C. freundii GN346, read-out: MIC concomitant) was 8 µg/mL. For the same molecule, the MIC (C. freundii GN346; GN346, Concomitant (CPFX:SM = 1:1), C. freundii GN346, read-out: MIC concomitant) was 0.008 µg/mL, the MIC (C. freundii GN346; GN346, Concomitant (DRPM:SM = 1:1), C. freundii GN346, read-out: MIC concomitant) was 0.063 µg/mL and the MIC (C. freundii GN346; GN346, Concomitant (IPM:SM = 1:1), read-out: MIC) was 0.25 µg/mL. The MIC (C. freundii GN346; GN346, Concomitant (MEPM:SM = 1:1), read-out: MIC) was 0.031 µg/mL, the MIC (C. freundii GN346; GN346, Concomitant (MEPM:SM = 1:2), read-out: MIC) was 0.063 µg/mL and the MIC (C. freundii GN346; GN346, Concomitant (MEPM:SM = 1:4), read-out: MIC) was 0.125 µg/mL. For the same molecule, the MIC (C. freundii GN346; GN346, Concomitant (PAPM:SM = 1:1), C. freundii GN346, read-out: MIC concomitant) was 0.25 µg/mL, the MIC (C. freundii GN346; GN346, Concomitant (PIPC:SM = 1:1), C. freundii GN346, read-out: MIC concomitant) was 8 µg/mL and the MIC (C. freundii GN346; GN346, Concomitant drug (MEPM:SM = 2:1), read-out: MIC) was 0.016 µg/mL. It also gave an MIC (C. freundii GN346; GN346, alone, read-out: MIC) of 8 µg/mL, an MIC (C. freundii GN346; [3]) of 8 µg/mL and an MIC (B. cepacia 14427; Burkholderia cepacia, 14427, Concomitant (ME:SM = 1:1)) of 1 µg/mL. For the same molecule, the MIC (B. cepacia 14427; Burkholderia cepacia, 14427, Concomitant (ME:SM = 1:2)) was 1 µg/mL, the MIC (B. cepacia 14427; Burkholderia cepacia, 14427, Concomitant (ME:SM = 1:4)) was 2 µg/mL and the MIC (B. cepacia 14427; Burkholderia cepacia, 14427, Concomitant (ME:SM = 2:1)) was 0.5 µg/mL. The MIC (B. cepacia 14427; Burkholderia cepacia, 14427, alone) was 8 µg/mL, the MIC (B. cepacia 14428; Burkholderia cepacia, 14428, Concomitant (ME:SM = 1:1)) was 1 µg/mL and the MIC (B. cepacia 14428; Burkholderia cepacia, 14428, Concomitant (ME:SM = 1:2)) was 2 µg/mL. It also gave an MIC (B. cepacia 14428; Burkholderia cepacia, 14428, Concomitant (ME:SM = 1:4)) of 2 µg/mL, an MIC (B. cepacia 14428; Burkholderia cepacia, 14428, Concomitant (ME:SM = 2:1)) of 0.5 µg/mL and an MIC (B. cepacia 14428; Burkholderia cepacia, 14428, alone) of 8 µg/mL. The MIC (B. cepacia 14429; Burkholderia cepacia, 14429, Concomitant (ME:SM = 1:1)) was 1 µg/mL, the MIC (B. cepacia 14429; Burkholderia cepacia, 14429, Concomitant (ME:SM = 1:2)) was 1 µg/mL and the MIC (B. cepacia 14429; Burkholderia cepacia, 14429, Concomitant (ME:SM = 1:4)) was 2 µg/mL. The MIC (B. cepacia 14429; Burkholderia cepacia, 14429, Concomitant (ME:SM = 2:1)) was 0.5 µg/mL, the MIC (B. cepacia 14429; Burkholderia cepacia, 14429, alone) was 4 µg/mL and the MIC (B. cepacia 14430; Burkholderia cepacia, 14430, Concomitant (ME:SM = 1:1)) was 1 µg/mL. For the same molecule, the MIC (B. cepacia 14430; Burkholderia cepacia, 14430, Concomitant (ME:SM = 1:2)) was 2 µg/mL, the MIC (B. cepacia 14430; Burkholderia cepacia, 14430, Concomitant (ME:SM = 1:4)) was 8 µg/mL and the MIC (B. cepacia 14430; Burkholderia cepacia, 14430, Concomitant (ME:SM = 2:1)) was 1 µg/mL. The MIC (B. cepacia 14430; Burkholderia cepacia, 14430, alone) was 8 µg/mL, the MIC (B. cepacia 14607; Burkholderia cepacia, 14607, Concomitant (ME:SM = 1:1)) was 1 µg/mL and the MIC (B. cepacia 14607; Burkholderia cepacia, 14607, Concomitant (ME:SM = 1:2)) was 1 µg/mL. The MIC (B. cepacia 14607; Burkholderia cepacia, 14607, Concomitant (ME:SM = 1:4)) was 2 µg/mL, the MIC (B. cepacia 14607; Burkholderia cepacia, 14607, Concomitant (ME:SM = 2:1)) was 0.5 µg/mL and the MIC (B. cepacia 14607; Burkholderia cepacia, 14607, alone) was 4 µg/mL. The MIC (B. cepacia 1892324; Burkholderia cepacia, 1892324, Concomitant (ME:SM = 1:1)) was 1 µg/mL, the MIC (B. cepacia 1892324; Burkholderia cepacia, 1892324, Concomitant (ME:SM = 1:2)) was 2 µg/mL and the MIC (B. cepacia 1892324; Burkholderia cepacia, 1892324, Concomitant (ME:SM = 1:4)) was 2 µg/mL. The MIC (B. cepacia 1892324; Burkholderia cepacia, 1892324, Concomitant (ME:SM = 2:1)) was 1 µg/mL, the MIC (B. cepacia 1892324; Burkholderia cepacia, 1892324, alone) was 4 µg/mL and the MIC (B. cepacia 1993527; Burkholderia cepacia, 1993527, Concomitant (ME:SM = 1:1)) was 1 µg/mL. The MIC (B. cepacia 1993527; Burkholderia cepacia, 1993527, Concomitant (ME:SM = 1:2)) was 2 µg/mL, the MIC (B. cepacia 1993527; Burkholderia cepacia, 1993527, Concomitant (ME:SM = 1:4)) was 8 µg/mL and the MIC (B. cepacia 1993527; Burkholderia cepacia, 1993527, Concomitant (ME:SM = 2:1)) was 1 µg/mL. For the same molecule, the MIC (B. cepacia 1993527; Burkholderia cepacia, 1993527, alone) was 8 µg/mL, the MIC (B. cepacia 257-1; Burkholderia cepacia, 2571, Concomitant (ME:SM = 1:1)) was 0.5 µg/mL and the MIC (B. cepacia 257-1; Burkholderia cepacia, 2571, Concomitant (ME:SM = 1:2)) was 0.5 µg/mL. The MIC (B. cepacia 257-1; Burkholderia cepacia, 2571, Concomitant (ME:SM = 1:4)) was 1 µg/mL, the MIC (B. cepacia 257-1; Burkholderia cepacia, 2571, Concomitant (ME:SM = 2:1)) was 0.25 µg/mL and the MIC (B. cepacia 257-1; Burkholderia cepacia, 2571, alone) was 4 µg/mL. The MIC (B. cepacia 3138; Burkholderia cepacia, 3138, Concomitant (ME:SM = 1:1)) was 1 µg/mL, the MIC (B. cepacia 3138; Burkholderia cepacia, 3138, Concomitant (ME:SM = 1:2)) was 2 µg/mL and the MIC (B. cepacia 3138; Burkholderia cepacia, 3138, Concomitant (ME:SM = 1:4)) was 8 µg/mL. For the same molecule, the MIC (B. cepacia 3138; Burkholderia cepacia, 3138, Concomitant (ME:SM = 2:1)) was 1 µg/mL, the MIC (B. cepacia 3138; Burkholderia cepacia, 3138, alone) was 8 µg/mL and the MIC (B. cepacia 7247; Burkholderia cepacia, 7247, Concomitant (ME:SM = 1:1)) was 2 µg/mL. It also gave an MIC (B. cepacia 7247; Burkholderia cepacia, 7247, Concomitant (ME:SM = 1:2)) of 4 µg/mL, an MIC (B. cepacia 7247; Burkholderia cepacia, 7247, Concomitant (ME:SM = 1:4)) of 8 µg/mL and an MIC (B. cepacia 7247; Burkholderia cepacia, 7247, Concomitant (ME:SM = 2:1)) of 1 µg/mL. For the same molecule, the MIC (B. cepacia 7247; Burkholderia cepacia, 7247, alone) was 16 µg/mL, the MIC (B. cepacia 7438; Burkholderia cepacia, 7438, Concomitant (ME:SM = 1:1)) was 2 µg/mL and the MIC (B. cepacia 7438; Burkholderia cepacia, 7438, Concomitant (ME:SM = 1:2)) was 2 µg/mL. For the same molecule, the MIC (B. cepacia 7438; Burkholderia cepacia, 7438, Concomitant (ME:SM = 1:4)) was 8 µg/mL, the MIC (B. cepacia 7438; Burkholderia cepacia, 7438, Concomitant (ME:SM = 2:1)) was 1 µg/mL and the MIC (B. cepacia 7438; Burkholderia cepacia, 7438, alone) was 16 µg/mL.
